Source: patent US6541467B1, “Thrombin inhibitors having a lactam at P3” (Corvas International, Inc., priority 2000, dated 2003)

Legend:
Type in all cases: biochemical
[1] = biological target: T1, bovine pancreatic trypsin (Bos taurus, UniProt P00760); assay: Trypsin chromogenic enzyme assay
T1 sequence (P00760 24-246): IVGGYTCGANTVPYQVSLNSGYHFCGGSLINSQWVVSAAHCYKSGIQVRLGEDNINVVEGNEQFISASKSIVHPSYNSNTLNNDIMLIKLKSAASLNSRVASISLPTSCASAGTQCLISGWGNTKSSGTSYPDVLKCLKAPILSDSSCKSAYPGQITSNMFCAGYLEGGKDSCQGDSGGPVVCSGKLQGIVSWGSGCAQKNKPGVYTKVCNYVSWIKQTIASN
Experimental: (§1) The ability of compounds of the present invention to act as a selective inhibitor of thrombin activity was assessed by determining the concentration of test-compound which inhibited the activity of this enzyme by 50%, (IC50), and comparing this value to that determined for all or some of the following related serine proteases: recombinant tissue plasminogen activator (rt-PA), plasmin, activated protein C, chymotrypsin, factor Xa and trypsin.
(§2) The buffer used for all assays was HBSA (10 mM HEPES, pH 7.5, 150 mM sodium chloride, 0.1% bovine serum albumin).
(§3) The assay for IC50 determinations was conducted by combining in appropriate wells of a Corning microtiter plate, 50 microliters of HBSA, 50 microliters of the test compound at a specified concentration (covering a broad concentration range) diluted in HBSA (or HBSA alone for V0 (uninhibited velocity) measurement), and 50 microliters of the enzyme diluted in HBSA. Following a 30 minute incubation at ambient temperature, 50 microliters of the substrate at the concentrations specified below were added to the wells, yielding a final total volume of 200 microliters. The initial velocity of chromogenic substrate hydrolysis was measured by the change in absorbance at 405 nm using a Thermo Max® Kinetic Microplate Reader over a 5 minute period in which less than 5% of the added substrate was utilized. The concentration of added inhibitor which caused a 50% decrease in the initial rate of hydrolysis was defined as the IC50 value.
Trypsin catalytic activity was determined using the chromogenic substrate, S-2222 (benzoyl-L-isoleucine-L-glutamic acid-[gamma-methyl ester]-L-arginine-p-nitroanilide), which was obtained from DiaPharma Group. […] Purified (3×-crystallized; TRL3) bovine pancreatic trypsin was obtained from Worthington Biochemical Corp. The enzyme was reconstituted in deionized water and diluted into HBSA prior to assay in which the final concentration was 0.5 nM.

human plasmin = biological target: T2, human plasmin (Homo sapiens, UniProt P00747); assay: Plasmin chromogenic enzyme assay
T2 construct: Purified human plasmin; purchased Enzyme Research Laboratories, Inc
T2 sequence (P00747 581-810 limits assumed): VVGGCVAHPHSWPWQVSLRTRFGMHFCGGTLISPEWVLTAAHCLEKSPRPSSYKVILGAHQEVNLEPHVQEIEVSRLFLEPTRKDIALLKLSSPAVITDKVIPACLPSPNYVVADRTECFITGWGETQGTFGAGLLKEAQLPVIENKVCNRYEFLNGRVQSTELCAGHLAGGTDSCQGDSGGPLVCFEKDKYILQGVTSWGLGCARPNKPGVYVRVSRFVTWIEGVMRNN
T2 sequence (P00747 97-580 partner limits assumed): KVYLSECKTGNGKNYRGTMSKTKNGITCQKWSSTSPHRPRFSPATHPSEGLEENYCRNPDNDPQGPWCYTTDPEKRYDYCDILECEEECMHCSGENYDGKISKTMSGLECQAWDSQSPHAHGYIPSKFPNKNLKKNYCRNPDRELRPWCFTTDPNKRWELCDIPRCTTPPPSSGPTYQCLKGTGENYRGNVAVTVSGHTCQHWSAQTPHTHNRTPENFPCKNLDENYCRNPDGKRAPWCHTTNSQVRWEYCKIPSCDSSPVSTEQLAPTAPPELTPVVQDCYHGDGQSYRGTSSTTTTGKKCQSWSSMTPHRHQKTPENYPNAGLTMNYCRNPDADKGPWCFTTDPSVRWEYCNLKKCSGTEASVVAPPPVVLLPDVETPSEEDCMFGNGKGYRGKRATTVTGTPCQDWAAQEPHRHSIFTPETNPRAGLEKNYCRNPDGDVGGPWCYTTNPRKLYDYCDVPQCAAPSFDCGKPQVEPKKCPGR
Experimental: as §1, §2, §3
Plasmin catalytic activity was determined using the chromogenic substrate, S-2366 [L-pyroglutamyl-L-prolyl-L-arginine-p-nitroaniline hydrochloride], which was obtained from DiaPharma group. The substrate was made up in deionized water followed by dilution in HBSA prior to the assay in which the final concentration was 300 micromolar (about 2:.5-times Km). Purified human plasmin was obtained from Enzyme Research Laboratories, Inc. The enzyme was diluted into HBSA prior to assay in which the final concentration was 1.0 nM.

Factor Xa = biological target: T3, Factor Xa (Homo sapiens, UniProt P00742); assay: Factor Xa chromogenic enzyme assay; settings: read-out: fXa IC50
T3 construct: purchased Enzyme Research Laboratories, Inc. (South Bend, Ind.)
T3 sequence (P00742 235-488 limits assumed): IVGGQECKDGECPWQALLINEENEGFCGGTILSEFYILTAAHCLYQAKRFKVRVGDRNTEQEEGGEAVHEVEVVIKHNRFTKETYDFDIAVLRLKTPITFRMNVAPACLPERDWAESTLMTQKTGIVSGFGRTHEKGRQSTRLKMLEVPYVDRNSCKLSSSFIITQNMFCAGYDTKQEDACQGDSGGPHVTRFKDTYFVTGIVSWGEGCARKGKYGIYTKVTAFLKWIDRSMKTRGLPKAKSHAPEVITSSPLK
T3 sequence (P00742 41-179 partner limits assumed): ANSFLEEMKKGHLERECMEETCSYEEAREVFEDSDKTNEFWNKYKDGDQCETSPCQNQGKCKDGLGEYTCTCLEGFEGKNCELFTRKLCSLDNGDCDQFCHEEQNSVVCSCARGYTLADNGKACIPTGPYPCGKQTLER
Experimental: as §1, §2, §3
Factor Xa catalytic activity was determined using the chromogenic substrate S-2765 (N-benzyloxycarbonyl-D-arginine-L-glycine-L-arginine-p-nitroaniline), obtained from DiaPharma Group (Franklin, Ohio). All substrates were reconstituted in deionized water prior to use. […] Purified human Factor X was obtained from Enzyme Research Laboratories, Inc. (South Bend, Ind.) and Factor Xa (FXa) was activated and prepared from it as described [Bock, P. E., Craig, P. A., Olson, S. T., and Singh, P. Arch. Biochem. Biophys. 273:375-388 (1989)]. The enzyme was diluted into HBSA prior to assay in which the final concentration was 0.25 nM.

human α-thrombin = biological target: T4, human α-thrombin (Homo sapiens, UniProt P00734); assay: Thrombin (fIIa) chromogenic enzyme assay; settings: for IC50: 0 min
T4 construct: Purified human α-thrombin; purchased Enzyme Research Laboratories, Inc
Experimental: For screening compounds using these assays, the compounds of the present invention are dissolved in buffer to give solutions containing concentrations such that assay concentrations range from 0 to 100 micromolar. In the assays for thrombin, plasmin, t-PA, aPC, chymotrypsin, and trypsin, a chromogenic synthetic substrate is added to a solution containing test compound and the enzyme of interest and the residual catalytic activity of that enzyme is determined spectrophometrically. The IC50 of a compound of the present invention is determined from the rate of substrate turnover caused by the specific enzyme being measured. IC50 is the concentration of test compound which gives 50% inhibition of the rate of substrate turnover. Likewise, the Ki of a compound of the present invention is determined from the rate of substrate turnover caused by the specific enzyme being measured at various […] concentrations. Example A provides exemplars of in vitro assays used to select the compounds of the present invention.
as §1, §2
as §3, with “Following a 30 minute incubation at ambient temperature, 50 microliters of the substrate at the concentrations specified below were added to the wells, yielding a final total volume of 200 microliters.” left out
Enzyme activity was determined using the chromogenic substrate, Pefachrome t-PA (CH3SO2-D-hexahydrotyrosine-glycyl-L-Arginine-p-nitroaniline, obtained from Pentapharm Ltd.). The substrate was reconstituted in deionized water prior to use. Purified human α-thrombin was obtained from Enzyme Research Laboratories, Inc. The buffer used for all assays was HBSA (10 mM HEPES, pH 7.5, 150 mM sodium chloride, 0.1% bovine serum albumin).
The initial velocity of Pefachrome t-PA hydrolysis was measured by the change in absorbance at 405 nm using a Thermo Max® Kinetic Microplate Reader over a 5 minute period in which less than 5% of the added substrate was utilized. The concentration of:added inhibitor which caused a 50% decrease in the initial rate of hydrolysis was defined as the IC50 value.

SMILES	IC50 [1] [nM]	IC50 (human plasmin) [nM]	IC50 (Factor Xa) [nM]	Ki (human α-thrombin) [nM]	IC50 (human α-thrombin) [nM]
N=C(N)c1ccc(CNC(=O)CN2CCCC[C@H](NS(=O)(=O)c3ccc4c(c3)CCO4)C2=O)s1 [Example 24, 3-(S)-(2,3-Dihydrobenzo[b]furanyl-5-sulfonyl)amino-1-(2-amindino-5-methylenecarboxamidomethylthiophenyl)-4,5,6,7-tetrahydroazepin-2-one]	100 to 300	≥ 2500	300 to 2500	≤ 100	≤ 100
Cc1nc(N)ccc1CNC(=O)CN1CCCC[C@H](NS(=O)(=O)c2ccc3c(c2)CCO3)C1=O [Example 35, 3-(S)-(2,3-Dihydrobenzo[b]furanyl-5-sulfonyl)amino-1-(2-amino-6-methyl-5-methylenecarboxamidomethylpyridinyl)-4,5,6,7-tetrahydroazepin-2-one]	≥ 2500	≥ 2500	≥ 2500	≤ 100	100 to 300
N=C(N)N1CCC(CNC(=O)CN2CCCC[C@H](NS(=O)(=O)c3ccc4c(c3)CCO4)C2=O)CC1 [Example 36, 3-(S)-(2,3-Dihydrobenzo[b]furanyl-5-sulfonyl)amino-1-(1-amidino-4-methylenecarboxamidomethylperidinyl)-4,5,6,7-tetrahydroazepin-2-one]	≥ 2500	≥ 2500	≥ 2500	≤ 100	100 to 300
N/C(=N\O)c1ccc(CNC(=O)CN2CCCC[C@H](NS(=O)(=O)c3ccc4c(c3)CCO4)C2=O)cc1 [Example 37]	300 to 2500	≥ 2500	≥ 2500	100 to 300	300 to 2500
N=C(N)c1ccc(CNC(=O)CN2CCCC[C@H](NS(=O)(=O)c3ccc4c(c3)CCO4)C2=O)cc1 [Example 38]	≤ 100	≥ 2500	≥ 2500	≤ 100	≤ 100
N=C(N)c1ccc(CNC(=O)CN2CCCC[C@H](NS(=O)(=O)c3ccc4c(c3)CCO4)C2=O)c(F)c1 [Example 39]	100 to 300	≥ 2500	≥ 2500	≤ 100	100 to 300
N=C(N)N1CCC(CNC(=O)CN2CCCC[C@H](NS(=O)(=O)c3ccc4ccccc4c3)C2=O)CC1 [Example 40]	≥ 2500	≥ 2500	≥ 2500	≥ 2500	≥ 2500
N=C(N)N1CCC(CNC(=O)CN2CCCC[C@H](NS(=O)(=O)c3ccccc3)C2=O)CC1 [Example 41, 3-(Benzenesulfonyl)amino-1-(1-amidino-4-methylenecarboxamido-methylpiperidinyl)-4,5,6,7-tetrahydroazepin-2-one]	≥ 2500	≥ 2500	≥ 2500	≤ 100	300 to 2500
COc1ccc(OC)c(S(=O)(=O)N[C@H]2CCCCN(CC(=O)NCC3CCN(C(=N)N)CC3)C2=O)c1 [Example 42]	≥ 2500	≥ 2500	≥ 2500	100 to 300	300 to 2500
COc1ccc(S(=O)(=O)N[C@H]2CCCCN(CC(=O)NCC3CCN(C(=N)N)CC3)C2=O)cc1OC [Example 43]	≥ 2500	≥ 2500	≥ 2500	≤ 100	300 to 2500
N=C(N)c1ccc(CNC(=O)CN2CCCC[C@H](NS(=O)(=O)c3ccc4ccccc4c3)C2=O)cc1 [Example 44]	100 to 300	≥ 2500	≥ 2500	100 to 300	300 to 2500
N=C(N)c1ccc(CNC(=O)CN2CCCC[C@H](NS(=O)(=O)c3ccccc3)C2=O)cc1 [Example 45]	100 to 300	≥ 2500	≥ 2500	≤ 100	100 to 300
COc1ccc(OC)c(S(=O)(=O)N[C@H]2CCCCN(CC(=O)NCc3ccc(C(=N)N)cc3)C2=O)c1 [Example 46]	≥ 2500	≥ 2500	≥ 2500	≤ 100	≤ 100
COc1ccc(S(=O)(=O)N[C@H]2CCCCN(CC(=O)NCc3ccc(C(=N)N)cc3)C2=O)cc1OC [Example 47]	100 to 300	≥ 2500	≥ 2500	≤ 100	≤ 100
N[C@H]1CC[C@H](CNC(=O)CN2CCCC[C@H](NS(=O)(=O)c3ccc4c(c3)CCO4)C2=O)CC1 [Example 48]	≥ 2500	≥ 2500	≥ 2500	≤ 100	300 to 2500
O=C(CN1CCCC[C@H](NS(=O)(=O)c2ccc3c(c2)CCO3)C1=O)NCc1ccc2[nH]ncc2c1 [Example 49]	≥ 2500	≥ 2500	≥ 2500	100 to 300	300 to 2500
N/C(=N\O)c1ccc(CNC(=O)CN2C(=O)[C@@H](NS(=O)(=O)c3ccc4c(c3)CCO4)CCc3ccccc32)cc1 [Example 54, 3-(S)-(2,3-Dihydrobenzo[b]furanyl-5-sulfonyl)amino-1-(4-hydroxyamidinylbenzylmethylenecarboxamido)-4,5-dihydrobenzo[f]azepin-2-one]	≥ 2500	≥ 2500	≥ 2500	300 to 2500	≥ 2500
N=C(N)c1ccc(CNC(=O)CN2C(=O)[C@@H](NS(=O)(=O)c3ccc4c(c3)CCO4)CCc3ccccc32)cc1 [Example 55, 3-(S)-(2,3-Dihydrobenzo[b]furanyl-5-sulfonyl)amino-1-(4-amidinylphenylmethylenecarboxamido)-4,5-dihydrobenzo[f]azepin-2-one]	300 to 2500	≥ 2500	≥ 2500	≤ 100	≤ 100
N=C(N)N1CCC(CNC(=O)CN2C(=O)[C@@H](NS(=O)(=O)c3ccc4c(c3)CCO4)CCc3ccccc32)CC1 [Example 56, 3-(S)-(2,3-Dihydrobenzo[b]furanyl-5-sulfonyl)amino-1-(1-amidino-4-methylenecarboxamidomethylpiperidyl)-4,5-dihydrobenzo[f]azepin-2-one]	≥ 2500	≥ 2500	≥ 2500	≤ 100	300 to 2500
